From ChEMBL document CHEMBL3994617, “2,8-bis(trifluoromethyl)quinoline analogs show improved anti-Zika virus activity, compared to mefloquine” (Eur J Med Chem, 2017) come the findings set out here.

For data set [1], the system named is Zika virus. The data set is described as follows: Antiviral activity against Zika virus infected in African green monkey Vero cells assessed as inhibition of viral RNA replication at 10 uM after 24 hrs by RT-PCR method relative to control. Type of data set: functional.
Data set [2] has as its system Zika virus. The data set is described as follows: Antiviral activity against Zika virus infected in African green monkey Vero cells assessed as inhibition of viral RNA replication after 24 hrs by RT-PCR method. It counts as functional.
In data set [3] the test system is Zika virus. The experiment in a line: Potency index, ratio of mefloquine EC50 to test compound EC50 for Zika virus infected in African green monkey Vero cells. Type of data set: functional.
Data set [4] can be described thus: Selectivity index, ratio of CC50 for African green monkey Vero cells to EC50 for Zika virus infected in African green monkey Vero cells. It counts as toxicity. The note with it: read-out: Ratio CC50/EC50.
The nature of data set [5]: Cytotoxicity against African green monkey Vero cells assessed as reduction in cell viability after 72 hrs by XTT assay. It counts as cell-based. The note with it: chlorocebus sabaeus. (In general: Tetrazolium assays rely on reduction of a dye to a coloured formazan, in cell work by metabolically active cells.)
A further data set has as its system Vero. The experiment in a line: Cytotoxicity against African green monkey Vero cells assessed as reduction in cell viability at 10 uM after 72 hrs by XTT assay relative to control. The note with it: chlorocebus sabaeus. It counts as cell-based.
Data set [6] concerns Zika virus. The experiment in a line: Potency index, ratio of chloroquine EC50 to test compound EC50 for Zika virus infected in African green monkey Vero cells. Type of data set: functional.

`COc1cc(C(F)(F)F)nc2c(C(F)(F)F)cccc12`: the inhibition (usually the change of the read-out against control, counted positive when it falls) at 10 µM with Zika virus [1] came out at 12%.

Take `OCCNc1cc(C(F)(F)F)nc2c(C(F)(F)F)cccc12`: the concentration for a half-maximal effect (EC50) (as a rule, the concentration needed to bring the measured effect to its halfway point) with Zika virus [2] worked out at 0.8 µM. Moreover, in the data set with Zika virus [3], the “Ratio EC50” value was 5. In data set [4], the selectivity ratio turned out to be 236. The CC50 (usually the concentration at which the toxic effect on the cells reaches its halfway point) at 72 h in data set [5] was 189 µM. Moreover, the inhibition at 10 µM in the data set with Zika virus [1] was found to be 74.4%.

`NCCCCCCCCCCNc1cc(C(F)(F)F)nc2c(C(F)(F)F)cccc12`: the Activity with Vero is greater than 80%.

As for `NCCNc1cc(C(F)(F)F)nc2c(C(F)(F)F)cccc12`, in the data set with Zika virus [2], the EC50 was 0.8 µM. In the data set with Zika virus [3], the “Ratio EC50” value was found to be 5. In addition, the selectivity ratio in data set [4] stood at 243. Moreover, the CC50 at 72 h in data set [5] was 195 µM. Further, the inhibition at 10 µM with Zika virus [1] is 78.6%.

In the case of `FC(F)(F)c1cc(NCCCl)c2cccc(C(F)(F)F)c2n1`, in the data set on Zika virus [2], the EC50 was found to be 1.4 µM. Besides, the “Ratio EC50” value in the data set on Zika virus [3] is given as 3. Further, in data set [4], the selectivity ratio came out at 225. Besides, the CC50 at 72 h in data set [5] came out at 316 µM. For the same compound, the inhibition at 10 µM in the data set with Zika virus [1] was 86.9%.

For the compound `CCCCNc1cc(C(F)(F)F)nc2c(C(F)(F)F)cccc12`, in the data set with Zika virus [1], the inhibition at 10 µM worked out at 58.8%.

For the compound `NCCCNc1cc(C(F)(F)F)nc2c(C(F)(F)F)cccc12`, the concentration giving a half-maximal response (EC50) with Zika virus [2] amounted to 2 µM. Moreover, the “Ratio EC50” value with Zika virus [3] was 2. Further, in data set [4], the selectivity ratio was determined as 143. For the same compound, in data set [5], the 50% cytotoxic concentration (CC50) at 72 h was found to be 287 µM. The inhibition at 10 µM in the data set on Zika virus [1] was 79.9%.

Turning to `O[C@@H](c1cc(C(F)(F)F)nc2c(C(F)(F)F)cccc12)[C@H]1CCCCN1` [(S,R)-MEFLOQUINE], the EC50 in the data set with Zika virus [2] came to 3.6 µM. Besides, the selectivity ratio in data set [4] was found to be 58. Further, the “Ratio EC50” value in the data set on Zika virus [6] was found to be 3. The CC50 at 72 h in data set [5] turned out to be 212 µM. For the same compound, in the data set with Zika virus [1], the inhibition at 10 µM is 78.8%.

For `CCN(CC)CCCC(C)Nc1ccnc2cc(Cl)ccc12` (stereo not given) [CHLOROQUINE], the EC50 with Zika virus [2] turned out to be 12 µM. Further, the CC50 at 72 h in data set [5] was 412 µM.
